Laboratory results from paper PMC4872661 (Journal of molecular recognition : JMR, 2011).

Target: DAFP-1
Experiment: Hummel-Dreyer size-exclusion HPLC, Klotz plot
Type: binding, Dendroides canadensis
Conditions: 0.10 M Na2SO4, 0.05% NaN3, 0.10 M NaPi, pH 7.00, ambient temperature; 1:1 stoichiometry

NC(=O)C1=CN([C@@H]2O[C@H](COP(=O)(O)OP(=O)(O)OC[C@H]3O[C@@H](n4cnc5c(N)ncnc54)[C@H](O)[C@@H]3O)[C@@H](O)[C@H]2O)C=CC1 [NADH, β-nicotinamide adenine dinucleotide, reduced]
Kd: 280 ± 20 nM
